Paper PMC5807903, “Combination of Virtual Screening Protocol by in Silico toward the Discovery of Novel 4-Hydroxyphenylpyruvate Dioxygenase Inhibitors” (Frontiers in Chemistry, 2018)
Read-outs that look alike come from different tables or passages of the source.

Target: T1, AtHPPD (Arabidopsis thaliana, UniProt P93836)
T1 construct: gene HPD; recombinant enzyme supplied by Guangfu Yang research team; Fe(II) enzyme; PDB 1TFZ used for docking only
T1 sequence (P93836 1-445): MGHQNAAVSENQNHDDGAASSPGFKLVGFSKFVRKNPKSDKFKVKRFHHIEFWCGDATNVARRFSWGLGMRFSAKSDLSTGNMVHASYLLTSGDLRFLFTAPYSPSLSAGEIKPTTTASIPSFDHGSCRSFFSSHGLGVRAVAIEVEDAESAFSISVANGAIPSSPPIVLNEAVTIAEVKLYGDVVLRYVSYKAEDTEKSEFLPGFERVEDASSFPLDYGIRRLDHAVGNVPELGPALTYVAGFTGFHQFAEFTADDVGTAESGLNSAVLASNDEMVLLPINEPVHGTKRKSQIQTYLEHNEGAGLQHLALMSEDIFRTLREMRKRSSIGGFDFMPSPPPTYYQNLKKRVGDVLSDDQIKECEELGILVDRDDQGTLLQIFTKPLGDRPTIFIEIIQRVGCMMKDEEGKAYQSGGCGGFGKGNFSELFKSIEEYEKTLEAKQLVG
Experiment: HGD-coupled assay, maleylacetoacetate at […] nm
Type: biochemical

Row | SMILES | IC50 [µM] | IC50 (read-out: IC50) [µM]
1 | CS(=O)(=O)c1ccc(C(=O)C2C(=O)CCCC2=O)c([N+](=O)[O-])c1 [Control 1, mesotrione] | 0.204 | –
2 | Cc1cc(O)c(C(=O)/C=C/c2ccccc2)c(=O)o1 [compound 3881, 3-cinnamoyl-4-hydroxy-6-methyl-2H-pyran-2-one] | – | 2.49
